Where a SMILES comes first, the peptide text is derived from it. Bridges are numbered along the chain shown (N, C = ends). [ ]: non-standard residue; d: D form. The star is where a group is joined. hPhe(3-Cl-4-CF3) = N[C@@H](CCc1ccc(C(F)(F)F)c(Cl)c1)C(=O)O; NPrPhe(4-CF3) = CCCN[C@@H](Cc1ccc(C(F)(F)F)cc1)C(=O)O; NMeGly(cPent) = CN[C@H](C(=O)O)C1CCCC1; Pro(4,4-F2) = O=C(O)[C@@H]1CC(F)(F)CN1; Hyp = O=C(O)[C@@H]1C[C@@H](O)CN1; NMeL = CN[C@@H](CC(C)C)C(=O)O; Morpholide = C1CN(*)CCO1; NMeA = CN[C@@H](C)C(=O)O; Ac5c = NC1(C(=O)O)CCCC1; Aze = O=C(O)[C@@H]1CCN1; Ac4c = NC1(C(=O)O)CCC1; Sar = CNCC(=O)O
Assays:
[1] = biological target: GDP-bound NRAS wild-type protein (Homo sapiens, UniProt P01111); experiment: Binding to NRAS by surface plasmon resonance (SPR), Single Cycle Kinetics; settings: KD ratio NRAS/KRAS, SPR
Chain of GDP-bound NRAS wild-type protein (P01111 whole entry): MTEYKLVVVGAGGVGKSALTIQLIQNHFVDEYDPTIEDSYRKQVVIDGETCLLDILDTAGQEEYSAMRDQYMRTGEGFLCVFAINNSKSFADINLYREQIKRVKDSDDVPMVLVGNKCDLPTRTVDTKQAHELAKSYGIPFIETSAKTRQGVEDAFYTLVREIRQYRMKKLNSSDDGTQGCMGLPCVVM

[2] = biological target: GDP-bound HRAS wild-type protein (Homo sapiens, UniProt P01112); experiment: Binding to HRAS by surface plasmon resonance (SPR), Single Cycle Kinetics; settings: KD ratio HRAS/KRAS, SPR
Chain of GDP-bound HRAS wild-type protein (P01112 whole entry): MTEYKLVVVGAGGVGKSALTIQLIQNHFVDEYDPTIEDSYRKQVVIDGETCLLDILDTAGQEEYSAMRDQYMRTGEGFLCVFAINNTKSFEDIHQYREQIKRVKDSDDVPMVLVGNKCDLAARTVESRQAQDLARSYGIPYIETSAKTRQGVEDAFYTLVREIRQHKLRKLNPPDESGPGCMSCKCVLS

SMILES	NRAS/KRAS (ratio of KD for GDP-bound NRAS wild-type to KD for KRAS) [1]	HRAS/KRAS (ratio of KD for GDP-bound HRAS wild-type to KD for KRAS) [2]
CCCN1C(=O)CN(C)C(=O)[C@@H]2CCN2C(=O)[C@H]([C@@H](C)CC)NC(=O)[C@H](CC(C)C)N(C)C(=O)C[C@@H](C(=O)N2CCOCC2)NC(=O)[C@H](C2CCCC2)N(C)C(=O)C2(CCCC2)NC(=O)[C@@H]2CC(F)(F)CN2C(=O)[C@H](CCc2ccc(C(F)(F)F)c(Cl)c2)NC(=O)CN(C)C(=O)[C@@H]1Cc1ccc(C(F)(F)F)cc1 [PP0339] ([NMeL]I[Aze][Sar][NPrPhe(4-CF3)][Sar][hPhe(3-Cl-4-CF3)][Pro(4,4-F2)][Ac5c][NMeGly(cPent)]D-Morpholide; lactam N-11)	B (a compound having 3 or more and less than 10 is denoted as B)	B (a compound having 3 or more and less than 10 is denoted as B)
CCCN1C(=O)CN(C)C(=O)[C@@H]2CCN2C(=O)[C@H]([C@@H](C)CC)NC(=O)[C@H](CC(C)C)N(C)C(=O)C[C@@H](C(=O)N2CCOCC2)NC(=O)[C@H](C2CCCC2)N(C)C(=O)C2(CCC2)NC(=O)[C@@H]2CC(F)(F)CN2C(=O)[C@H](CCc2ccc(C(F)(F)F)c(Cl)c2)NC(=O)CN(C)C(=O)[C@@H]1Cc1ccc(C(F)(F)F)cc1 [PP0340] ([NMeL]I[Aze][Sar][NPrPhe(4-CF3)][Sar][hPhe(3-Cl-4-CF3)][Pro(4,4-F2)][Ac4c][NMeGly(cPent)]D-Morpholide; lactam N-11)	B (a compound having 3 or more and less than 10 is denoted as B)	B (a compound having 3 or more and less than 10 is denoted as B)
CCCN1C(=O)CN(C)C(=O)[C@@H]2CCN2C(=O)[C@H]([C@@H](C)CC)NC(=O)[C@H](CC(C)C)N(C)C(=O)C[C@@H](C(=O)N2CCOCC2)NC(=O)[C@H](C2CCCC2)N(C)C(=O)C2(CCCC2)NC(=O)[C@@H]2C[C@@H](OCC)CN2C(=O)[C@H](CCc2ccc(C(F)(F)F)c(Cl)c2)NC(=O)CN(C)C(=O)[C@@H]1Cc1ccc(C(F)(F)F)cc1 [PP0341] ([NMeL]I[Aze][Sar][NPrPhe(4-CF3)][Sar][hPhe(3-Cl-4-CF3)][Hyp](Et)[Ac5c][NMeGly(cPent)]D-Morpholide; lactam N-11)	B (a compound having 3 or more and less than 10 is denoted as B)	B (a compound having 3 or more and less than 10 is denoted as B)
CCCN1C(=O)CN(C)C(=O)[C@@H]2CCN2C(=O)[C@H]([C@@H](C)CC)NC(=O)[C@H](CC(C)C)N(C)C(=O)C[C@@H](C(=O)N2CCOCC2)NC(=O)[C@H](C2CCCC2)N(C)C(=O)C2(CCC2)NC(=O)[C@@H]2C[C@@H](OCC)CN2C(=O)[C@H](CCc2ccc(C(F)(F)F)c(Cl)c2)NC(=O)CN(C)C(=O)[C@@H]1Cc1ccc(C(F)(F)F)cc1 [PP0342] ([NMeL]I[Aze][Sar][NPrPhe(4-CF3)][Sar][hPhe(3-Cl-4-CF3)][Hyp](Et)[Ac4c][NMeGly(cPent)]D-Morpholide; lactam N-11)	B (a compound having 3 or more and less than 10 is denoted as B)	B (a compound having 3 or more and less than 10 is denoted as B)
CCCN1C(=O)[C@@H]2CCN2C(=O)[C@H](C)N(C)C(=O)[C@H]([C@@H](C)CC)NC(=O)[C@H](CC(C)C)N(C)C(=O)C[C@@H](C(=O)N2CCOCC2)NC(=O)[C@H](C2CCCC2)N(C)C(=O)C2(CCCC2)NC(=O)[C@@H]2CCCN2C(=O)[C@H](CCc2ccc(C(F)(F)F)c(Cl)c2)NC(=O)CN(C)C(=O)[C@@H]1Cc1ccc(C(F)(F)F)cc1 [PP0343] ([NMeL]I[NMeA][Aze][NPrPhe(4-CF3)][Sar][hPhe(3-Cl-4-CF3)]P[Ac5c][NMeGly(cPent)]D-Morpholide; lactam N-11)	C (A compound having a KD ratio of 0.1 or more and less than 3 is denoted as C)	B (a compound having 3 or more and less than 10 is denoted as B)
CCCN1C(=O)[C@@H]2CCN2C(=O)[C@H](C)N(C)C(=O)[C@H]([C@@H](C)CC)NC(=O)[C@H](CC(C)C)N(C)C(=O)C[C@@H](C(=O)N2CCOCC2)NC(=O)[C@H](C2CCCC2)N(C)C(=O)C2(CCC2)NC(=O)[C@@H]2CCCN2C(=O)[C@H](CCc2ccc(C(F)(F)F)c(Cl)c2)NC(=O)CN(C)C(=O)[C@@H]1Cc1ccc(C(F)(F)F)cc1 [PP0344] ([NMeL]I[NMeA][Aze][NPrPhe(4-CF3)][Sar][hPhe(3-Cl-4-CF3)]P[Ac4c][NMeGly(cPent)]D-Morpholide; lactam N-11)	C (A compound having a KD ratio of 0.1 or more and less than 3 is denoted as C)	B (a compound having 3 or more and less than 10 is denoted as B)
CCCN1C(=O)[C@@H]2CCN2C(=O)[C@H](C)N(C)C(=O)[C@H]([C@@H](C)CC)NC(=O)[C@H](CC(C)C)N(C)C(=O)C[C@@H](C(=O)N2CCOCC2)NC(=O)[C@H](C2CCCC2)N(C)C(=O)C2(CCCC2)NC(=O)[C@@H]2CC(F)(F)CN2C(=O)[C@H](CCc2ccc(C(F)(F)F)c(Cl)c2)NC(=O)CN(C)C(=O)[C@@H]1Cc1ccc(C(F)(F)F)cc1 [PP0345] ([NMeL]I[NMeA][Aze][NPrPhe(4-CF3)][Sar][hPhe(3-Cl-4-CF3)][Pro(4,4-F2)][Ac5c][NMeGly(cPent)]D-Morpholide; lactam N-11)	C (A compound having a KD ratio of 0.1 or more and less than 3 is denoted as C)	B (a compound having 3 or more and less than 10 is denoted as B)
CCCN1C(=O)[C@@H]2CCN2C(=O)[C@H](C)N(C)C(=O)[C@H]([C@@H](C)CC)NC(=O)[C@H](CC(C)C)N(C)C(=O)C[C@@H](C(=O)N2CCOCC2)NC(=O)[C@H](C2CCCC2)N(C)C(=O)C2(CCC2)NC(=O)[C@@H]2CC(F)(F)CN2C(=O)[C@H](CCc2ccc(C(F)(F)F)c(Cl)c2)NC(=O)CN(C)C(=O)[C@@H]1Cc1ccc(C(F)(F)F)cc1 [PP0346] ([NMeL]I[NMeA][Aze][NPrPhe(4-CF3)][Sar][hPhe(3-Cl-4-CF3)][Pro(4,4-F2)][Ac4c][NMeGly(cPent)]D-Morpholide; lactam N-11)	C (A compound having a KD ratio of 0.1 or more and less than 3 is denoted as C)	B (a compound having 3 or more and less than 10 is denoted as B)
CCCN1C(=O)[C@@H]2CCN2C(=O)[C@H](C)N(C)C(=O)[C@H]([C@@H](C)CC)NC(=O)[C@H](CC(C)C)N(C)C(=O)C[C@@H](C(=O)N2CCOCC2)NC(=O)[C@H](C2CCCC2)N(C)C(=O)C2(CCCC2)NC(=O)[C@@H]2C[C@@H](OCC)CN2C(=O)[C@H](CCc2ccc(C(F)(F)F)c(Cl)c2)NC(=O)CN(C)C(=O)[C@@H]1Cc1ccc(C(F)(F)F)cc1 [PP0347] ([NMeL]I[NMeA][Aze][NPrPhe(4-CF3)][Sar][hPhe(3-Cl-4-CF3)][Hyp](Et)[Ac5c][NMeGly(cPent)]D-Morpholide; lactam N-11)	C (A compound having a KD ratio of 0.1 or more and less than 3 is denoted as C)	B (a compound having 3 or more and less than 10 is denoted as B)
